Source: US20230172958A1, “USE OF COMPOUNDS FOR TREATING VIRAL INFECTIONS” (priority 2020, published 2023)
Where two headings read alike, the source gives them in different places.

Key:
Type in all cases: cell-based
SARS-CoV-2 [1] = test: Anti SARS-CoV-2 IC50 estimation by qRT-PCR in VeroE6 cells; conditions: Severe acute respiratory syndrome coronavirus 2, Vero C1008, 48 h
[2] = Cytotoxicity by Hoechst 33342 / Sytox orange staining; conditions: African green monkey, Vero E6 cells
Description: The assay was done in a 96 well plate format in 3 wells for each sample. 1×10e4 Vero E6 cells were plated per well and incubated at 37° C. overnight for monolayer formation. Next day, cells were incubated with the test substance (TS) at the indicated concentration with final DMSO concentration being 0.5%. The Control cells were incubated with 0.5% DMSO only. 24 and 48 hours later, cells were stained with Hoechst 33342 and Sytox orange dye. Images were taken at 10×, 16 images per well, which covers 90% of the well area using ImageXpress Microconfocal (Molecular Devices). Hoechst 33342 nucleic acid stain is a popular cell-permanent nuclear counterstain that emits blue fluorescence when bound to dsDNA. It stains all the live and dead cells. Sytox orange dye stains the nucleic acid in the cells with compromised membranes. This stain is an indicator of cell death. First, the software will count total number of cells in the Hoechst image. In the Sytox image, it will count, among Hoechst positive cells, how many cells are positive for Sytox.

SARS-CoV-2 [3] = test: Antiviral screening by qRT-PCR in VeroE6 cells

## CCC(CC)COC(=O)[C@H](C)N[P@](=O)(OC[C@H]1O[C@@](C#N)(c2ccc3c(N)ncnn23)[C@H](O)[C@@H]1O)Oc1ccccc1 [Remdesivir, reference compound]
SARS-CoV-2 [1]; read-out: IC50 value (μM) E gene
  IC50: 0.15 µM
SARS-CoV-2 [1]; read-out: IC50 value (μM) N gene
  IC50: 0.11 µM
[2]; 24 hours, read-out: % Cell viability 24 hours
  viability at 24 h, 10 µM: 99.2%
[2]; 48 hours, read-out: % Cell viability 48 hours
  viability at 48 h, 10 µM: 94.4%
SARS-CoV-2 [3]; Severe acute respiratory syndrome coronavirus 2, Vero C1008, 24 h, read-out: % inhibition of virus replication 24 hours post infection E
  inhibition at 10 µM: 82.4%
SARS-CoV-2 [3]; Severe acute respiratory syndrome coronavirus 2, Vero C1008, 24 h, read-out: % inhibition of virus replication 24 hours post infection N
  inhibition at 10 µM: 80.3%
SARS-CoV-2 [3]; Severe acute respiratory syndrome coronavirus 2, Vero C1008, 48 h, read-out: % inhibition of virus replication 48 hours post infection E
  inhibition at 10 µM: 99.8%
SARS-CoV-2 [3]; Severe acute respiratory syndrome coronavirus 2, Vero C1008, 48 h, read-out: % inhibition of virus replication 48 hours post infection N
  inhibition at 10 µM: 99.9%
